Results from patent US5013743A, “Selective antibacterial agent against campytobacter” (Takeda Chemical Industries, Ltd., priority 1989, dated 1991).
≈ marks a conversion by molar mass, not a printed value.

Assays:
[1] = tested on: A. calcoaceticus IFO 13006; assay: MIC, standard agar-plate dilution method, aerobic common bacteria; format: cell-based; settings: Acinetobacter calcoaceticus, IFO13006
Description: (§1) Antibacterial activities of some compounds of the present invention against aerobic common bacteria were examined.

C. freundii TN 474 = assay: as above; format: cell-based; settings: Citrobacter freundii, TN474
Description: as §1

E. coli T 7 = assay: as above; format: cell-based; settings: Escherichia coli, T7
Description: as §1

K. oxytoca TN 1711 = assay: as above; format: cell-based; settings: Klebsiella oxytoca, TN1711
Description: as §1

K. pneumoniae DT = assay: as above; format: cell-based; settings: Klebsiella pneumoniae
Description: as §1

M. morganii IFO 3168 = assay: as above; format: cell-based; settings: Morganella morganii, IFO3168
Description: as §1

P. aeruginosa GN 3407 = assay: as above; format: cell-based; settings: Pseudomonas aeruginosa, GN3407
Description: as §1

S. aureus 1840 = assay: as above; format: cell-based; settings: Staphylococcus aureus
Description: as §1

S. aureus 308 A-1 = assay: as above; format: cell-based; settings: Staphylococcus aureus, 308A1
Description: as §1

S. aureus C 260 = assay: as above; format: cell-based; settings: Staphylococcus aureus, C260
Description: as §1

S. aureus N-241 = assay: as above; format: cell-based; settings: Staphylococcus aureus, N241
Description: as §1

S. faecium IFO 3128 = assay: as above; format: cell-based; settings: Enterococcus faecium, IFO3128
Description: as §1

S. marcecens IFO 12648 = assay: as above; format: cell-based
Description: as §1

S. pyogenes E-14 = assay: as above; format: cell-based; settings: Streptococcus pyogenes, E14
Description: as §1

genus Campylobacter = assay: Antibacterial activity against the genus Campylobacter (Tables 2 and 3, summary in words); format: cell-based, Campylobacter pylori; settings: fluorinated alkyl derivatives vs other derivatives, Table 2 and Table 3
Description: The minimum inhibitory concentration (MIC) of each compound was determined by the agar-plate dilution method based on the standard method advocated by Japan Society of Chemotherapy [cf: Chemotherapy, Jan. '81, p. 76]. The volume of agar medium per plate was 20 ml. Each of the test compounds was dissolved in dimethylsulfoxide at a concentration of 80 mg/ml or 40 mg/ml, and diluted 10 times with sterile distilled water. Furthermore, the aqueous solution of 8 mg/ml or 4 mg/ml was diluted serially 2-fold with sterile distilled water. To 2 ml of the diluted solution was added 18 ml of Brucella agar (BBL Microbiology Systems, Becton Dickinson and Co., Cockeysville, Md. 21030) containing 7% defibrinated horse blood (manufactured by Nippon Bio-supp. Center) and mixed well. Test strains frozen at -80° C. in Brucella broth (BBL) containing 10% horse serum were thawed and inoculated on a Brucella agar slant medium containing 7% defibrinated horse blood. The medium was incubated anaerobically at 37° C. for 3 days in a jar containing a piece of sponge sufficiently impregnated with water and Campy Pak™ (BBL). The organisms grown on the slant medium were collected and suspended in a Brucella broth to correspond to the turbidity of about 10^8 CFU/ml of common bacteria. One platinum loop of inoculum was streaked on the medium plates for determination. The plates were incubated under the same conditions as described above.

[2] = Inspection of lyophilized compound (1) for solubility, appearance and content immediately after dissolution; format: physicochemical; settings: for Appearance / Clarity / Content: after dissolution; for Content: taken as 100.0% (HPLC)
Description: (§2) The resulting filtrate was filled in 1 ml portions into vials of a 12 cm^3 capacity, followed by lyophilization by means of the conventional technique.
(§3) *As measured by use of highperformance liquid chromatography (HPLC),
(§4) whereby the content determined immediately after preparation was taken as
(§5) Chromatographic conditions of HPLC:
(§6) Nucleosil 5 C18 (supplied by GasChro Kogyo K.K. of Japan) 4.0 mm
(§7) Methanol:water:triethylamine (60:40:1, pH 7)
(§8) UV spectrophotometry at 285 mm

[3] = Stability of the lyophilized compound (1) after being dissolved in vials, storage for 24 hours; format: physicochemical
Description: as §2, §3, §4, §5, §6, §7, §8

[4] = format: in vivo; settings: oral, mice, 200 mg/kg

**Q.** With `Cc1c(OCC(F)(F)F)ccnc1C[S+]([O-])c1nc2ccccc2[nH]1` (stereo not drawn) [Compound 1] as the molecule, how does the MIC [1] read?
**A.** > 400 µg/mL

**Q.** What about the MIC (C. freundii TN 474) of the same molecule?
**A.** > 400 µg/mL

**Q.** What about the MIC (E. coli T 7) of the same molecule?
**A.** > 400 µg/mL

**Q.** And the MIC (K. oxytoca TN 1711)?
**A.** > 400 µg/mL

**Q.** What about the MIC (K. pneumoniae DT) of the same molecule?
**A.** > 400 µg/mL

**Q.** And the MIC (M. morganii IFO 3168)?
**A.** > 400 µg/mL

**Q.** What about the MIC (P. aeruginosa GN 3407) of the same molecule?
**A.** > 400 µg/mL

**Q.** What about the MIC (S. aureus 1840) of the same molecule?
**A.** > 400 µg/mL

**Q.** And the MIC (S. aureus 308 A-1)?
**A.** > 400 µg/mL

**Q.** What about the MIC (S. aureus C 260) of the same molecule?
**A.** > 400 µg/mL

**Q.** And the MIC (S. aureus N-241)?
**A.** > 400 µg/mL

**Q.** And the MIC (S. faecium IFO 3128)?
**A.** > 400 µg/mL

**Q.** What about the MIC (S. marcecens IFO 12648) of the same molecule?
**A.** > 400 µg/mL

**Q.** What about the MIC (S. pyogenes E-14) of the same molecule?
**A.** > 400 µg/mL

**Q.** And the “antibacterial activity compared with other derivatives” value (genus Campylobacter)?
**A.** stronger antibacterial activity

**Q.** And the pH after dissolution ([2]; Solvent A)?
**A.** 8.7

**Q.** What about the Solubility ([2]; Solvent A (N-methylglucamine, HCl, propylene glycol, ethanol)) of the same molecule?
**A.** Good

**Q.** And the pH after dissolution ([2]; Solvent B)?
**A.** 9.0

**Q.** And the Solubility ([2]; Solvent B (N-methylglucamine, HCl, polyethylene glycol 400, ethanol, water))?
**A.** Good

**Q.** What about the pH after dissolution ([2]; Solvent C) of the same molecule?
**A.** 9.0

**Q.** And the Solubility ([2]; Solvent C (N-methylglucamine, HCl, ethanol, propylene glycol, water))?
**A.** Good

**Q.** What about the pH after dissolution ([2]; Solvent D) of the same molecule?
**A.** 9.0

**Q.** What about the Solubility ([2]; Solvent D (N-methylglucamine, HCl, polyethylene glycol 400, water)) of the same molecule?
**A.** Good

**Q.** And the dissolution speed ([2]; Solvents A to D)?
**A.** dissolved quickly

**Q.** What about the “solubilities of the lyophilized powder in all of these solvents” value ([2]; Solvents A to D) of the same molecule?
**A.** excellent solubilities

**Q.** What about the Appearance ([2]; Solvent A) of the same molecule?
**A.** Colorless

**Q.** And the Clarity ([2]; Solvent A)?
**A.** Clear

**Q.** What about the Content ([2]; Solvent A) of the same molecule?
**A.** 100%

**Q.** And the Appearance ([2]; Solvent B)?
**A.** Colorless

**Q.** And the Clarity ([2]; Solvent B)?
**A.** Clear

**Q.** And the Content ([2]; Solvent B)?
**A.** 100%

**Q.** What about the Appearance ([2]; Solvent C) of the same molecule?
**A.** Colorless

**Q.** And the Clarity ([2]; Solvent C)?
**A.** Clear

**Q.** And the Content ([2]; Solvent C)?
**A.** 100%

**Q.** And the Appearance ([2]; Solvent D)?
**A.** Colorless

**Q.** What about the Clarity ([2]; Solvent D) of the same molecule?
**A.** Clear

**Q.** What about the Content ([2]; Solvent D) of the same molecule?
**A.** 100%

**Q.** And the “change in content of compound (1)” value ([3]; Solvents A to D, 24 hours)?
**A.** decrease slightly

**Q.** What about the “change in the stage of solution” value ([3]; Solvents A to D, 24 hours) of the same molecule?
**A.** no change in the stage of solution

**Q.** And the Clarity ([3]; after storage at 5° C. for 24 hrs., Solvent A)?
**A.** Clear

**Q.** And the Clarity ([3]; after storage at 5° C. for 24 hrs., Solvent B)?
**A.** Clear

**Q.** And the Clarity ([3]; after storage at 5° C. for 24 hrs., Solvent C)?
**A.** Clear

**Q.** What about the Clarity ([3]; after storage at 5° C. for 24 hrs., Solvent D) of the same molecule?
**A.** Clear

**Q.** What about the Appearance ([3]; after storage at 5° C. for 24 hrs., Solvents A to D) of the same molecule?
**A.** Slightly to lightly green-yellow

**Q.** What about the changes in appearance ([3]; immediately after dissolution and after storage for 24 hours) of the same molecule?
**A.** slight changes in appearance

**Q.** Which results are given for `COc1ccc2[nH]c([S+]([O-])Cc3ncc(C)c(OC)c3C)nc2c1` (stereo not drawn) [Compound 2]?
**A.** MIC [1]: > 400 µg/mL; MIC (C. freundii TN 474): > 400 µg/mL; MIC (E. coli T 7): 40 µg/mL (≈ 116 µM); MIC (K. oxytoca TN 1711): > 400 µg/mL; MIC (K. pneumoniae DT): > 400 µg/mL; MIC (M. morganii IFO 3168): > 400 µg/mL; MIC (P. aeruginosa GN 3407): > 400 µg/mL; MIC (S. aureus 1840): > 400 µg/mL; MIC (S. aureus 308 A-1): > 400 µg/mL; MIC (S. aureus C 260): > 400 µg/mL; MIC (S. aureus N-241): > 400 µg/mL; MIC (S. faecium IFO 3128): > 400 µg/mL; MIC (S. marcecens IFO 12648): > 400 µg/mL; MIC (S. pyogenes E-14): > 400 µg/mL

**Q.** With `Cc1c(OCC(F)(F)F)ccnc1CSc1nc2ccccc2[nH]1` [Compound 6] as the molecule, how does the MIC [1] read?
**A.** > 400 µg/mL

**Q.** What about the MIC (C. freundii TN 474) of the same molecule?
**A.** > 400 µg/mL

**Q.** What about the MIC (E. coli T 7) of the same molecule?
**A.** > 400 µg/mL

**Q.** And the MIC (K. oxytoca TN 1711)?
**A.** > 400 µg/mL

**Q.** And the MIC (K. pneumoniae DT)?
**A.** > 400 µg/mL

**Q.** And the MIC (M. morganii IFO 3168)?
**A.** > 400 µg/mL

**Q.** What about the MIC (P. aeruginosa GN 3407) of the same molecule?
**A.** > 400 µg/mL

**Q.** And the MIC (S. aureus 1840)?
**A.** > 400 µg/mL

**Q.** What about the MIC (S. aureus 308 A-1) of the same molecule?
**A.** > 400 µg/mL

**Q.** And the MIC (S. aureus C 260)?
**A.** > 400 µg/mL

**Q.** What about the MIC (S. aureus N-241) of the same molecule?
**A.** > 400 µg/mL

**Q.** What about the MIC (S. faecium IFO 3128) of the same molecule?
**A.** > 400 µg/mL

**Q.** What about the MIC (S. marcecens IFO 12648) of the same molecule?
**A.** > 400 µg/mL

**Q.** What about the MIC (S. pyogenes E-14) of the same molecule?
**A.** > 400 µg/mL

**Q.** And the “antibacterial activity compared with other derivatives” value (genus Campylobacter)?
**A.** stronger antibacterial activity

**Q.** What about the dead animals [4] of the same molecule?
**A.** no dead animals
